Data from patent US8741955B2, “D-serine transporter inhibitors as pharmaceutical compositions for the treatment of central nervous system disorders” (Allergan, Inc., priority 2011, dated 2014).

Key:
asc-1 = biological target: T1, asc-1 (Rattus norvegicus, UniProt P63116); assay: sodium-independent [3H]D-serine transport into rat forebrain synaptosomes; assay type: biochemical; conditions: inhibition of [3H]D-serine transport, rat brain synaptosomes; means of at least two determinations
T1 construct: from tissue; host or cells: rat forebrain P2 (synaptosome) fraction
T1 sequence (P63116 1-530): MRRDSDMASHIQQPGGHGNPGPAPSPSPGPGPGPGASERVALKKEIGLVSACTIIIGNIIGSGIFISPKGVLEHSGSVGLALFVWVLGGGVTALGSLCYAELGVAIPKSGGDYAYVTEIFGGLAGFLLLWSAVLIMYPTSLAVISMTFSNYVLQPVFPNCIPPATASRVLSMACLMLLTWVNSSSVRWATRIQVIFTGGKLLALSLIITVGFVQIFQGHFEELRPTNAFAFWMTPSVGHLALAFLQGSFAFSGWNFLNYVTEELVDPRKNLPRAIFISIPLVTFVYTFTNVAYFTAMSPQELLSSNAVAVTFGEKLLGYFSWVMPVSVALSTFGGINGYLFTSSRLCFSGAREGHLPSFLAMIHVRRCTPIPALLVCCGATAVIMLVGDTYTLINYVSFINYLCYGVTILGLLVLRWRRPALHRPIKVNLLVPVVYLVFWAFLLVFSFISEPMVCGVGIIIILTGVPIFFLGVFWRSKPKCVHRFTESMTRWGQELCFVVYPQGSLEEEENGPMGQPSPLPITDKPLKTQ
T1 sequence (Q794F9 1-527 partner): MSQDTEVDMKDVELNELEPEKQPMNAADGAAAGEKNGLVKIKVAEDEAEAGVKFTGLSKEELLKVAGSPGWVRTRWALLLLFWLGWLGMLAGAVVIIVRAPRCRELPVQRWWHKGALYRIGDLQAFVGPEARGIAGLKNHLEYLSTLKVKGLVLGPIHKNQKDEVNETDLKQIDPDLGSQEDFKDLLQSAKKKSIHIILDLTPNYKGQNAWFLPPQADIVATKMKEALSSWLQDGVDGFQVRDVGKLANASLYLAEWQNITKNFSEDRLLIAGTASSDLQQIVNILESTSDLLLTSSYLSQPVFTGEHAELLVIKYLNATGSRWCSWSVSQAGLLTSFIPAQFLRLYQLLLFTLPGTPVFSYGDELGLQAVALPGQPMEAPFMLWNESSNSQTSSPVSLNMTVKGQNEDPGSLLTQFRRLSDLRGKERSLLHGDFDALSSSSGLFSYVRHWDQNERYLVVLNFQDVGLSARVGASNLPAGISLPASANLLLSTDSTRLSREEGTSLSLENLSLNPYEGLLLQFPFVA
Protocol: Under the assay conditions used, the sodium-independent transport of D-serine by rodent forebrain synaptosomes is mediated by asc-1 (Rutter et al., 2007), and the sodium-dependent transport of D-serine into astrocytes in culture is mediated by an ASCT transporter, ASCT2 according to the literature (Ribeiro et al., 2002).
Synaptosome assays: a P2 fraction of rat forebrain was prepared and assayed immediately. Aliquots of the P2 preparation (approx. 1 mg of original tissue weight) were incubated in sodium-free assay buffer (CholineCl: 128 mM, KCl: 3.5 mM; KH2PO4: 1.5 mM; MgCl2: 1 mM; CaCl2: 1 mM; glucose: 10 mM; Tris-acetate buffer: 10 mM, pH7.4) containing [^3H]D-serine (final concentration of 50 nM) and test compounds in duplicate for 4 mins at room temperature. The synaptosomes containing radiolabel were collected by filtration onto Whatman GF/C filters, and washed twice with ice cold assay buffer. Filters were solubilized in scintillation fluid and radioactivity determined in a beta counter. IC50 values were determined as described for the cell-based assays above.

pre-pulse inhibition = pre-pulse inhibition (PPI) and startle response; assay type: in vivo, rat; conditions: D-serine 600 mg/kg, L-4OHPG 15 mg/kg; for effect on the absolute startle response: control experiment
Protocol: Pre-pulse inhibition was measured using the SR-Lab Startle Response system fitted with a rat enclosure. During the acclimation period, each rat (n=8/group) was habituated with a 5 min interval of 65-dB background noise followed by six 120 dB startle pulses alone, each 40 ms long. This acclimation phase was followed by a 15 min PPI test session where rats were presented with 120 dB startle pulses without a pre-pulse (“pulse alone”) or pulses preceded by a 20 ms pre-pulse of 3, 6, or 12 dB above background noise (“PP3”, “PP6”, or “PP12”, respectively) and ended with five 120 dB startle pulses. PPI was recorded for pre-pulse intensities of 3, 6, and 12 dB, and no stimulus. Each pre-pulse trial was administered in pseudorandom order. The 120 dB pulse alone trials were randomly interspersed within the pre-pulse trials and used for comparison with pre-pulse trials. PPI data were calculated as a percentage of PPI by comparing the pulse-alone versus the PP trials using the formula [100−(response to pre-pulse+120 dB)/(response to 120 dB alone)×100]. Experimenter was masked to treatment during testing and analysis.
Data were analyzed with a 2-way ANOVA with Condition and Treatment as factors with post hoc Bonferroni comparisons.

[1] = system: amphetamine-induced hyperlocomotion in mice; assay: amphetamine induced hyperactivity; assay type: in vivo; conditions: systemic administration, amphetamine 2 mg/kg s.c.
Protocol: C57B/6 male mice (n=5-10/group) were placed in an open field apparatus and their activity was measured for 30 minutes. At 30 minutes, they received a vehicle injection or injection of test compound followed by an injection of amphetamine (2 mg/kg, s.c.) at minute 45. Their activity levels were subsequently measured for another 1 hour post-injection. Total activity for each 5 minute bin (21 total bins) was added to establish the activity curve over the 105 minute testing.

IC50 (asc-1) [µM] | SMILES | effect on PPI (pre-pulse inhibition; PP3, PP6, PP12) | effect on the absolute startle response (pre-pulse inhibition) | effect on amphetamine-induced hyperactivity/hyperlocomotion [1]
101 | N[C@H](C(=O)O)c1ccc(O)cc1 [L-4-hydroxyphenylglycine] | reduced PPI, an effect that reached significance at the PP12 intensity level | neither L-4OHPG nor D-serine had any significant effect | reduced amphetamine-induced hyperactivity in a dose-dependent manner
9.4 | N[C@H](CO)C(=O)O [D-serine] | – | neither L-4OHPG nor D-serine had any significant effect | –
